For 5 molecules, activation results are on record in paper PMC10175918 (Communications Biology, 2023).

Like-named read-outs stand apart in the source and are kept apart here.

What all share (experiment): TGFα-shedding assay-based GPCR screening with chimeric Gα subunit proteins
Common to all, as to type: cell-based

The target of assay [1] is T1, 348 GPCRs (Homo sapiens, UniProt O15552).
T1 construct: expressed in transfected cells; host or cells: HEK293A
T1 sequence (O15552 1-330): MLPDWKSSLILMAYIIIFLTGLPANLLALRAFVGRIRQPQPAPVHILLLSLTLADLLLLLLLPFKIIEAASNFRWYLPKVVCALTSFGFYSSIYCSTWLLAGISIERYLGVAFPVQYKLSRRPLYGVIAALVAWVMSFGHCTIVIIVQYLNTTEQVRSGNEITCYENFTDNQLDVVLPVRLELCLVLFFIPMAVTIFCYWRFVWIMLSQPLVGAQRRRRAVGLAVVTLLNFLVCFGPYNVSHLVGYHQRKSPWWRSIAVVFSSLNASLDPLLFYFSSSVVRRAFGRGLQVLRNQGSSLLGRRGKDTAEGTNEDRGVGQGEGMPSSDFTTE
The following applies: 10µM, Favipiravir 100μM.

Assay [2] deals with T2, 348 GPCRs (Homo sapiens, UniProt Q9NYW1).
T2 construct: expressed in transfected cells; host or cells: HEK293A
T2 sequence (Q9NYW1 1-312): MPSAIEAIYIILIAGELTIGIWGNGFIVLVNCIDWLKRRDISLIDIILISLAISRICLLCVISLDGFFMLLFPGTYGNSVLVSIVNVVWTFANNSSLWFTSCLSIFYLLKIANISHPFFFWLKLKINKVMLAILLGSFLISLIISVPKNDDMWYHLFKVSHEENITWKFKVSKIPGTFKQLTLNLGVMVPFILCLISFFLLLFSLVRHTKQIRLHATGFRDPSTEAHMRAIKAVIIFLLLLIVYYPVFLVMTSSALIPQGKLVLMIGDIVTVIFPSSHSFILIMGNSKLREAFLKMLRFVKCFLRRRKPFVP
The following applies: 10µM, Favipiravir 100μM.

The target in assay [3] is T3, 348 GPCRs (Homo sapiens, UniProt P13945).
T3 construct: expressed in transfected cells; host or cells: HEK293A
The following applies: 10µM, Favipiravir 100μM.

The target in assay [4] is T4, 348 GPCRs (Homo sapiens, UniProt P04001).
T4 construct: expressed in transfected cells; host or cells: HEK293A
T4 sequence (P04001 1-364): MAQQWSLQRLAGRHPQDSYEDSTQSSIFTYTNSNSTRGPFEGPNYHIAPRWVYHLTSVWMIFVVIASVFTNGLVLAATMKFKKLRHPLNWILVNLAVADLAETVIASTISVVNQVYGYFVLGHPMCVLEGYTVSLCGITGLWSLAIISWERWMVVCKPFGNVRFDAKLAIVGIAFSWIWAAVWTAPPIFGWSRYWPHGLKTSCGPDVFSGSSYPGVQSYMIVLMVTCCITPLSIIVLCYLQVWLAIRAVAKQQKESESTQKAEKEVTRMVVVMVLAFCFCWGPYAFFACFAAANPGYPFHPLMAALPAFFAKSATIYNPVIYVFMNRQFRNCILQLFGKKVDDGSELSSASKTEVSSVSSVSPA
The following applies: 10µM, Favipiravir 100μM.

The target of assay [5] is T5, 348 GPCRs (Homo sapiens, UniProt Q01726).
T5 construct: expressed in transfected cells; host or cells: HEK293A

In assay [6] the target is T6, 348 GPCRs (Homo sapiens, UniProt Q8TDU6).
T6 construct: expressed in transfected cells; host or cells: HEK293A
T6 sequence (Q8TDU6 1-330): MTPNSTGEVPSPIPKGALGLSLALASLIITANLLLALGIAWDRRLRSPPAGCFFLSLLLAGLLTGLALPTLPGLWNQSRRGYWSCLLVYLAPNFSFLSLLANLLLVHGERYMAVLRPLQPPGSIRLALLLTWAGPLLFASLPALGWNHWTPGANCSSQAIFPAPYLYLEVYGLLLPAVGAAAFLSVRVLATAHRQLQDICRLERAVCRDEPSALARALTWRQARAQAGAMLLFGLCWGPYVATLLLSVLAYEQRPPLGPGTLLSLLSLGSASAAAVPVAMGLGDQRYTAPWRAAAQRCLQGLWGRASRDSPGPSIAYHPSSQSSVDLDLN
The conditions noted are these: 10µM, Favipiravir 100μM.

Assay [7] addresses T7, 348 GPCRs (Homo sapiens, UniProt Q96G91).
T7 construct: expressed in transfected cells; host or cells: HEK293A
T7 sequence (Q96G91 1-374): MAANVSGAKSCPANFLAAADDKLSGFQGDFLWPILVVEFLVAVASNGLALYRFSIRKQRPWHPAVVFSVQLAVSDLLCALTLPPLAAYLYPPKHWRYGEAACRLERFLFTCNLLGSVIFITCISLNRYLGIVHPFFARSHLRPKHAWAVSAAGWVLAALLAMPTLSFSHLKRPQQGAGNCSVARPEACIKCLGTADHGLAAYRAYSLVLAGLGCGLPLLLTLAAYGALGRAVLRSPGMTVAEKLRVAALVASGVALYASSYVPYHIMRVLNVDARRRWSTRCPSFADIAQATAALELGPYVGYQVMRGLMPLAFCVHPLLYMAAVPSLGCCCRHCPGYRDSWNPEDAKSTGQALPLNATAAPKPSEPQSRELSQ

The target in assay [8] is T8, 348 GPCRs (Homo sapiens, UniProt P49146).
T8 construct: expressed in transfected cells; host or cells: HEK293A
T8 sequence (P49146 1-381): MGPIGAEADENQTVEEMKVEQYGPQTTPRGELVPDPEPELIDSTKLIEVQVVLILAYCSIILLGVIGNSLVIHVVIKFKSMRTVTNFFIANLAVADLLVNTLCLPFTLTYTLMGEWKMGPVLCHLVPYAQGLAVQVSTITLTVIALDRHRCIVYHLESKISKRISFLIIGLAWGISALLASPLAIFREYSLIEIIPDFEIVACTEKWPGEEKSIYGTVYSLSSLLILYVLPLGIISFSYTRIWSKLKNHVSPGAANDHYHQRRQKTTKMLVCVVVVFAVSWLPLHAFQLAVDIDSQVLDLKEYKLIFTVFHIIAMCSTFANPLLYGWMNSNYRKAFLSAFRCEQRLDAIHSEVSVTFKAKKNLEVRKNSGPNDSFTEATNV
The conditions noted are these: 10µM, Favipiravir 100μM.

Where [9] appears, read: FFA2 (free fatty acid receptor 2), read-out: % GPCR activation compared to TPA.
Where [10] appears, read: TAS2R9 (taste receptor, type 2, member 9), read-out: % GPCR activation compared to TPA.
[11] abbreviates: ADRB3 (adrenoceptor beta 3), read-out: % GPCR activation compared to TPA.
Setting [12] is: OPN1MW (opsin 1 (cone pigments), medium-wave-sensitive), read-out: % GPCR activation compared to TPA.
Where [13] appears, read: GPCR MC1R (melanocyte-stimulating hormone receptor), read-out: % GPCR activation compared to TPA.
[14] abbreviates: GPBA (G protein-coupled bile acid receptor 1), read-out: % GPCR activation compared to TPA.
Setting [15] is: GPCR P2Y11 (purinergic receptor P2Y, G-protein coupled, 11), read-out: % GPCR activation compared to TPA.
The mark [16] stands for this setting: NPY2R (neuropeptide Y receptor Y2), read-out: % GPCR activation compared to TPA.
[17] abbreviates: read-out: % GPCR activation compared to TPA, FFA2 (free fatty acid receptor 2).
Where [18] appears, read: read-out: % GPCR activation compared to TPA, TAS2R9 (taste receptor, type 2, member 9).
Where [19] appears, read: read-out: % GPCR activation compared to TPA, ADRB3 (adrenoceptor beta 3).
Setting [20] is: read-out: % GPCR activation compared to TPA, OPN1MW (opsin 1 (cone pigments), medium-wave-sensitive).
Setting [21] is: read-out: % GPCR activation compared to TPA, GPCR MC1R (melanocyte-stimulating hormone receptor).
[22] abbreviates: read-out: % GPCR activation compared to TPA, GPBA (G protein-coupled bile acid receptor 1).
Where [23] appears, read: read-out: % GPCR activation compared to TPA, GPCR P2Y11 (purinergic receptor P2Y, G-protein coupled, 11).
The mark [24] stands for this setting: read-out: % GPCR activation compared to TPA, NPY2R (neuropeptide Y receptor Y2).

T5 sequence (Q01726 whole entry): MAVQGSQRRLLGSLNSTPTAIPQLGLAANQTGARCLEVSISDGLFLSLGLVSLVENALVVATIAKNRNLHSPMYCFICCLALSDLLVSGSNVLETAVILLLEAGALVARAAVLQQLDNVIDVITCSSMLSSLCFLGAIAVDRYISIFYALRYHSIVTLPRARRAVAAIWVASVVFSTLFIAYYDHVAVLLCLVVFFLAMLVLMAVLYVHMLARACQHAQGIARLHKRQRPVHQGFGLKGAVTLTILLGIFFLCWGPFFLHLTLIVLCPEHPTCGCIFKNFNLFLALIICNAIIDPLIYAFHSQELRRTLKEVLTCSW
T3 sequence (P13945 whole entry): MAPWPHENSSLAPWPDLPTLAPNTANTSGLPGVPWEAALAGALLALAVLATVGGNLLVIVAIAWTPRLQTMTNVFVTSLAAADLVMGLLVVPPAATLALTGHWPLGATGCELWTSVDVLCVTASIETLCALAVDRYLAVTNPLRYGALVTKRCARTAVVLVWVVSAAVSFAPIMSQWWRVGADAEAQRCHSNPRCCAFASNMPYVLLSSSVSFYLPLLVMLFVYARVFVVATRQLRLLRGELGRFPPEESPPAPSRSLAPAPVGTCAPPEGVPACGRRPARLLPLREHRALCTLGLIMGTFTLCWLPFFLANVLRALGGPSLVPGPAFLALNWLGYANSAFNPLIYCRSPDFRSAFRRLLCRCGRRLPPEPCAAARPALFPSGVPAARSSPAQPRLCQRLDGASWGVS

Take `CC(C)C(=O)OC[C@H]1O[C@@H](n2ccc(NO)nc2=O)[C@H](O)[C@@H]1O` [molnupiravir]: the activation at 10 µM on 348 GPCRs [1] (setting [9]) was -4.09%; on 348 GPCRs [2] (setting [10]) it was 0.0718%; on 348 GPCRs [3] (setting [11]) it was -0.737%; on 348 GPCRs [5] (setting [13]) it was 0.0444%; on 348 GPCRs [6] (setting [14]), -1.97%; at 348 GPCRs [7] (setting [15]), -21.8%. In addition, the activation at 100 µM on 348 GPCRs [4] (setting [12]) is -0.857%; on 348 GPCRs [8] (setting [16]), -4.76%.

Turning to `CC(C)OC(=O)[C@H](C)N[P@](=O)(OC[C@H]1O[C@@H](n2ccc(=O)[nH]c2=O)[C@](C)(F)[C@@H]1O)Oc1ccccc1` [sofosbuvir], the activation at 10 µM was 0.172% on 348 GPCRs [1] (setting [17]); -0.791% on 348 GPCRs [2] (setting [18]); -0.333% at 348 GPCRs [3] (setting [19]); 0.575% on 348 GPCRs [5] (setting [21]); -0.805% on 348 GPCRs [6] (setting [22]); -20.5% at 348 GPCRs [7] (setting [23]). Further, the activation at 100 µM at 348 GPCRs [4] (setting [20]) was -1.41%; at 348 GPCRs [8] (setting [24]), -5.23%.

Regarding `N#C[C@@]1(c2ccc3c(N)ncnn23)O[C@H](CO)[C@@H](O)[C@H]1O` [GS441524], the activation at 10 µM is -2.64% at 348 GPCRs [1] (setting [9]); 0.686% on 348 GPCRs [2] (setting [10]); 0.201% at 348 GPCRs [3] (setting [11]); 0.496% at 348 GPCRs [5] (setting [13]); -1.79% on 348 GPCRs [6] (setting [14]); -16.3% at 348 GPCRs [7] (setting [15]). Further, the activation at 100 µM is -1.4% on 348 GPCRs [4] (setting [12]) and 0.462% on 348 GPCRs [8] (setting [16]).

In the case of `NC(=O)c1nc(F)cnc1O` [favipiravir, 6-fluoro-3-hydroxy-2-pyrazinecarboxamide], the activation at 10 µM at 348 GPCRs [1] (setting [9]) was -0.501%; at 348 GPCRs [2] (setting [10]), 2.37%; at 348 GPCRs [3] (setting [11]), -0.975%; on 348 GPCRs [6] (setting [14]), 0.241%. Moreover, the activation at 100 µM is -0.549% at 348 GPCRs [4] (setting [12]); -0.375% at 348 GPCRs [5] (GPCR MC1R (melanocyte-stimulating hormone receptor), 100μM, read-out: % GPCR activation compared to TPA); -11.1% at 348 GPCRs [7] (GPCR P2Y11 (purinergic receptor P2Y, G-protein coupled, 11), 100μM, read-out: % GPCR activation compared to TPA); -0.896% on 348 GPCRs [8] (setting [16]).

`CCC(CC)COC(=O)[C@H](C)N[P@](=O)(OC[C@H]1O[C@@](C#N)(c2ccc3c(N)ncnn23)[C@H](O)[C@@H]1O)Oc1ccccc1` [remdesivir]: the activation at 10 µM at 348 GPCRs [1] (setting [17]) is -1.72%; at 348 GPCRs [2] (setting [18]), 1.69%; at 348 GPCRs [3] (setting [19]), -0.789%; on 348 GPCRs [5] (setting [21]), -0.549%; at 348 GPCRs [6] (setting [22]), -1.26%; on 348 GPCRs [7] (setting [23]) it was -12.5%. In addition, the values for the activation at 100 µM on 348 GPCRs [4] (setting [20]) and on 348 GPCRs [8] (setting [24]) were 1.48% and 1.07%, respectively.
